How the values were obtained:
[1] = test system: Mouse colon cancer MC38 cells; assay: In vivo efficacy in MC-38 model; parameters: species or system C57BL6N mice; conditions: small molecules 15mg/kg PO QD, PD-1 1mg/kg IV QW, BDO 2mg/kg IP QW, 21 days
Experimental: (§1) Female C57BL6N mice (aged 6 weeks, 18-22 g) were provided by Vital River Laboratory Animal Technology Co., Ltd. (China) and used one week after quarantine and acclimation. All animals were kept in a room at 23±2 °C with a relative humidity of 50±5%, artificial lighting was provided from 08:00 to 20:00 every day, and the air was exchanged 13-18 times per hour. Mouse colon cancer MC38 cells were cultured conventionally in 1640 medium containing 10% fetal bovine serum in an incubator at 37 °C with 5% CO2. After being subcultured, the cells were collected when they reached the desired amount. The C57BL6N mice were subcutaneously injected with 2 × 10^6 MC38 cells on the right side to form tumors. After the tumors grew to about 100 mm^3, the animals were randomly grouped for administration. Tumor volumes were measured with a caliper on day 3, day 7, day 10, day 14, day 17, and day 21 after the administration. […] The toxicity of the compounds was evaluated according to the body weight and state of the mice.
Table 15. In vivo efficacy of some of the compounds of the present disclosure in MC-38 model

OVCAR 3 cells = assay: NK cell-mediated tumor cell killing (NK92 cells, GFP count); type: cell-based; conditions: Homo sapiens, 72 h compound, 1-4 h co-culture, compared to DMSO group, read-out: EC50 in promoting the NK92 cell-mediated OVCAR 3 cell death
Experimental: OVCAR 3 cells […] expressing GFP were seeded into a 96-well plate at 4000 cells/well. After overnight adherence culture, the serially diluted compounds were added, and the plate was incubated for another 72 h. After the two types of cells were mixed and cultured for another 1-4 h, NK92 cells were removed by washing with PBS, and adherent GFP-positive tumor cells were counted. The EC50 of the compounds in promoting the NK92 cell-mediated OVCAR 3 cell death was calculated compared to the DMSO group. Table 11. NK cell-mediated tumor cell killing by compounds of the present disclosure

HeLa cells = assay: Intracellular acetyl lysine / H3K 27 acetyl lysine level by ELISA; type: cell-based; conditions: 24 h of treatment
Experimental: HeLa cells were seeded into a 96-well plate at 20000 cells/well. After overnight adherence culture, the serially diluted compound was added. After 24 h of treatment, intracellular levels of acetyl lysine and H3K 27 acetyl lysine were quantified by ELISA. Table 9. Effect of compound of the present disclosure on levels of acetyl lysine and H3K 27 acetyl lysine

Jurkat cell = assay: Inhibition of Jurkat cell proliferation (CTG, intracellular ATP); type: cell-based; conditions: Homo sapiens, 72 h, compared to DMSO group, read-out: Inhibitory activity against Jurkat cell proliferation (IC50)
Experimental: (§2) Jurkat or 293T cells were seeded into a 96-well plate at 3000 cells/well. After overnight adherence culture, the serially diluted compound in DMSO was added. After 72 h, the intracellular ATP level was determined by CTG. The IC50 for the inhibition of cell proliferation by the compounds was calculated compared to the DMSO group. Table 8. Inhibitory activity of compounds of the present disclosure against Jurkat/293T cell proliferation (IC50, µM)

293T cell = assay: Inhibition of 293T cell proliferation (CTG, intracellular ATP); type: cell-based; conditions: Homo sapiens, HEK-293T, 72 h, compared to DMSO group, read-out: Inhibitory activity against 293T cell proliferation (IC50)
Experimental: as §2

[2] = Pharmacokinetic experiment in mice; type: in vivo, CD-1 female mice; conditions: female, CD-1, mouse, plasma; for Vd: read-out: Vdss
Experimental: CD-1 female mice aged 7 to 10 weeks were intravenously administered and orally administered at doses of 1 mg/kg and 10 mg/kg, respectively. The mice were fasted for at least 12 h before the administration and given food 4 h after the administration, and they were given ad libitum access to water during the experiment.
On the day of the experiment, animals in the intravenous group were given the corresponding compound by single injection via the tail vein at an administration volume of 10 mL/kg; and animals in the oral group were given the corresponding compound by single intragastric injection at an administration volume of 10 mL/kg. The animals were weighed before administration, and the administration volume was calculated according to the body weight. The sample collection time points were 0.083 h, 0.167 h, 0.5 h, 1 h, 2 h, 4 h, 8 h, and 24 h. About 200 µL of whole blood was collected through the orbital venous plexus at each time point and used to prepare plasma for concentration determination by high-performance liquid chromatography-tandem mass spectrometry (LC-MS/MS). The plasma concentrations were processed using a non-compartmental model of Winnolin pharmacokinetic software, and the pharmacokinetic parameters were calculated using a linear-log trapezoidal method. Table 13. Results of in vivo pharmacokinetic evaluation of compounds of the present disclosure

[3] = test system: Mouse colon cancer CT-26 cells; assay: In vivo efficacy in CT-26 model; parameters: species or system BALB/c mice; conditions: small molecules 15mg/kg PO QD, PD-1 1mg/kg IV QW, BDO 2mg/kg IP QW, 21 days
Experimental: as §1, with “BALB/c” for “C57BL6N”, “CT-26” for “MC38”, “10^5 CT-26” for “10^6 MC38”
Table 16. In vivo efficacy of some of the compounds of the present disclosure in CT-26 model

[4] = Stability in liver microsomes; type: in vitro ADME; conditions: 1 µM compound, NADPH, 37 °C
Experimental: After the 1 µM compound was incubated with 0.5 mg/mL of human or mouse liver microsomes and an NADPH regeneration system at 37 °C for different times, respectively, LC-MS-MS was used to analyze the remaining amount of the compound and calculate T1/2. Table 12. Evaluation results of stability of compounds of the present disclosure in human and mouse liver microsomes

[5] = Injection (1 mg/kg), intravenous
[6] = Human liver microsomes 0.5 mg/mL
[7] = Mouse liver microsomes 0.5 mg/mL

| SMILES | Acetyl lysine Maximum (%) (HeLa cells) | Acetyl lysine Minimum effective concentration (HeLa cells) | H3K 27 Acetyl lysine Maximum (%) (HeLa cells) | IC50 (Jurkat cell) | IC50 (293T cell) | AUC(0-t) [2, 5] | clearance [2, 5] | half-life [2, 5] | Vd [2, 5] | AUC(0-t) ([2]; Oral administration (10 mg/kg)) | Cmax ([2]; Oral administration (10 mg/kg)) | Tmax ([2]; Oral administration (10 mg/kg)) | bioavailability ([2]; Oral administration (10 mg/kg)) | half-life ([2]; Oral administration (10 mg/kg)) | CLint scaled at 1 µM [4, 6] | Clliver [4, 6] | half-life at 1 µM [4, 6] | CLint scaled at 1 µM [4, 7] | Clliver [4, 7] | half-life at 1 µM [4, 7] | also measured |
| --- | --- | --- | --- | --- | --- | --- | --- | --- | --- | --- | --- | --- | --- | --- | --- | --- | --- | --- | --- | --- | --- |
| [2H]c1cc(NC(=O)c2ccc(CNC(=O)/C=C/c3cccnc3)cc2)c(N)cc1F [Compound 1, (E)-N-(2-amino-4-fluorophenyl-5-d)-4-((3-(pyridin-3-yl)acrylamido)methyl)benzamide] | 430% | 16 nM | 360% | 860 nM | > 10000 nM | 401 ng·h/mL | 41.5 mL/min/kg | 2.41 h | 2.19 L/kg | 1890 ng·h/mL | 3450 ng/mL | 0.08 h | 45.3% | 2.76 h |  |  |  |  |  |  | Change in body weight [1]: +17.6%; TGI(%) ([1]; 6 mice per group): 35.7%; EC50 (OVCAR 3 cells): 43.9 nM; H3K 27 Acetyl lysine Minimum effective concentration (HeLa cells): 80 nM; Change in body weight [3]: +17.6%; TGI(%) ([3]; 6 mice per group): 35.7% |
| [2H]c1c(F)ccc(NC(=O)c2ccc(CNC(=O)/C=C/c3cccnc3)cc2)c1N [Compound 2] | 420% | 16 nM | 360% | 1680 nM | > 10000 nM | 441 ng·h/mL | 37.8 mL/min/kg | 2.3 h | 1.61 L/kg | 2160 ng·h/mL | 2360 ng/mL | 0.08 h | 46.5% | 1.85 h |  |  |  |  |  |  | H3K 27 Acetyl lysine Minimum effective concentration (HeLa cells): 80 nM |
| [2H]c1cc(F)cc(N)c1NC(=O)c1ccc(CNC(=O)/C=C/c2cccnc2)cc1 [Compound 3] |  |  |  | 1860 nM | 7500 nM | 592 ng·h/mL | 28.1 mL/min/kg | 2.78 h | 0.93 L/kg | 1770 ng·h/mL | 2350 ng/mL | 0.08 h | 26.3% | 2.21 h |  |  |  |  |  |  |  |
| [2H]c1cc(CNC(=O)/C=C/c2cccnc2)ccc1C(=O)Nc1ccc(F)cc1N [Compound 4] |  |  |  | 1700 nM | 3260 nM | 602 ng·h/mL | 27.7 mL/min/kg | 3.05 h | 1.32 L/kg | 1710 ng·h/mL | 1740 ng/mL | 0.08 h | 28.5% | 3.9 h | 19.5 mL/min/kg | 10.03 mL/min/kg | 1.49 h | 244 mL/min/kg | 65.74 mL/min/kg | 0.373 h |  |
| [2H]/C(=C\C(=O)NCc1ccc(C(=O)Nc2ccc(F)cc2N)cc1)c1cccnc1 [Compound 8] |  |  |  | 1580 nM | 4010 nM | 903 ng·h/mL | 36.9 mL/min/kg | 1.01 h | 1.21 L/kg | 1430 ng·h/mL | 824 ng/mL | 0.08 h | 29.6% | 1.87 h | 18.4 mL/min/kg | 9.73 mL/min/kg | 1.58 h | 285 mL/min/kg | 68.41 mL/min/kg | 0.319 h |  |
| [2H]c1ncccc1/C=C/C(=O)NCc1ccc(C(=O)Nc2ccc(F)cc2N)cc1 [Compound 9] |  |  |  | 1080 nM | 5180 nM | 1000 ng·h/mL | 16.6 mL/min/kg | 1.48 h | 0.44 L/kg | 1050 ng·h/mL | 1640 ng/mL | 0.17 h | 10.5% | 1.21 h | 4.59 mL/min/kg | 3.75 mL/min/kg | 6.32 h | 118 mL/min/kg | 50.99 mL/min/kg | 0.773 h |  |
| [2H]c1cncc(/C=C/C(=O)NCc2ccc(C(=O)Nc3ccc(F)cc3N)cc2)c1 [Compound 11] | 450% | 80 nM | 460% | 950 nM | 5160 nM | 733 ng·h/mL | 22.7 mL/min/kg | 1.79 h | 0.62 L/kg | 1330 ng·h/mL | 2370 ng/mL | 0.08 h | 18.2% | 1.19 h | 23.7 mL/min/kg | 11.04 mL/min/kg | 1.22 h | 231 mL/min/kg | 64.76 mL/min/kg | 0.394 h | H3K 27 Acetyl lysine Minimum effective concentration (HeLa cells): 80 nM |
| [2H]c1ccc(/C=C/C(=O)NCc2ccc(C(=O)Nc3ccc(F)cc3N)cc2)cn1 [Compound 12] |  |  |  | 1590 nM | 5310 nM | 514 ng·h/mL | 32.4 mL/min/kg | 1.17 h | 0.71 L/kg | 1610 ng·h/mL | 2080 ng/mL | 0.17 h | 30.5% | 1.93 h | 2.87 mL/min/kg | 2.52 mL/min/kg | 10.1 h | 108 mL/min/kg | 49.05 mL/min/kg | 0.844 h |  |
